{"source": "paper PMC6349869", "about": "“The palladacycle complex AJ-5 induces apoptotic cell death while reducing autophagic flux in rhabdomyosarcoma cells” (Cell Death Discovery, 2019)", "key": {"[1]": {"tested_on": "C2C12 cells", "test": "Clonogenic assay, C2C12 myoblasts", "assay_type": "cell-based, mouse", "conditions": "24 h of 0.3 µM", "experimental": "Cells were seeded in 6-well plates and treated the following day with IC50, ½ IC50, ¼ IC50 AJ-5 and vehicle. After 24 h, 800–4000 cells were seeded in 35 mm dishes in drug-free medium. Formation of colonies were monitored and after 7–21 days cells were fixed with 3:1 methanol:acetic acid and stained with 0.5% crystal violet (Sigma Aldrich) in 100% methanol. Colonies were imaged and percentage colony area was determined using ImageJ v1.50i[58] and the plugin ColonyArea[59]. Colony area was determined for each drug concentration and expressed as a percentage of vehicletreated control."}, "[2]": {"tested_on": "caspase-3/7, caspase-8, caspase-9, PARP in RH30 and RD cells", "test": "Caspase-Glo assays and western blots of apoptosis markers", "assay_type": "cell-based, human", "experimental": "(§1) Cells were lysed at 4 °C in whole-cell lysis buffer (0.125 M Tris-HCl pH 6.8, 4% SDS, 0.2% glycerol, 0.1% β-mercaptoethanol and a pinch of bromophenol blue) and boiled for 10 min. Proteins were resolved by SDS-PAGE (6–15% gels) and transferred to Hybond ECL membranes (Amersham, UK). The membranes were incubated with primary antibodies: rabbit polyclonal antibodies to phospho-histone H2A.X (Ser139) (#2577), phospho-chk2 (Thr68) (#221), phospho-p38 MAPK (Thr180/Tyr182) (#9211), cleaved caspase-3 (Asp175) (#9661), PARP (#9542), caspase-9 (#9502), LC3B (#2775), p38 MAPK (#9212), rabbit monoclonal antibody to cleaved caspase-7 (Asp198) (D6H1) (#8438), mouse monoclonal antibodies to phospho-ATM (Ser1981) (D6H9) (#5883), Cyclin B1 (V152) (#4135), Caspase-8 (1C12) (#9746), SQSTM1/p62 (D5L7G) (#88588) from Cell Signaling Technology (Massachusetts, USA); mouse monoclonal antibody to p53 (DO-1) (sc-126), rabbit polyclonal antibodies to p21 (C-19) (sc-397), cyclin A (H-432) (sc-751), cyclin B1 (H-433)(sc-752), PARP-1 (H-250) (sc-7150) from Santa Cruz Biotechnology (Texas, USA); rabbit polyclonal antibody to p38 MAP kinase (M0800) from Sigma Aldrich. After primary antibody incubation, membranes were incubated with goat anti-rabbit or goat anti-mouse HRP-conjugated secondary antibodies (Bio-Rad Laboratories, California, USA). Antibody reactive proteins were visualized by enhanced chemiluminescence using SuperSignal West Pico Chemiluminescent Substrate Kit (Thermo Fisher Scientific) or WesternBright ECL HRP Substrate Kit (Advansta, California, USA). Densitometry readings were obtained using ImageJ v1.50i[58] and protein expression levels were represented as a ratio of protein of interest/p38 loading control normalized to the vehicletreated control sample where appropriate. All blots are representative of at least two independent repeats.\nCells were seeded and treated for 24 h with IC50 AJ-5, vehicle or 0.5 µM (IC50) doxorubicin which was included and as a positive control. […]"}, "[3]": {"tested_on": "LC3II in RH30 and RD cells", "test": "LC3II western blotting", "assay_type": "cell-based, human", "conditions": "0.1 µM or IC50, 24 and 48 h", "experimental": "as §1, with “After primary antibody incubation, membranes were incubated with goat anti-rabbit or goat anti-mouse HRP-conjugated secondary antibodies (Bio-Rad Laboratories, California, USA). Antibody reactive proteins were visualized by enhanced chemiluminescence using SuperSignal West Pico Chemiluminescent Substrate Kit (Thermo Fisher Scientific) or WesternBright ECL HRP Substrate Kit (Advansta, California, USA).” left out, “All blots are representative of at least two independent repeats.” left out"}, "[4]": {"test": "Pharmacokinetics in whole blood of healthy mice", "assay_type": "in vivo, MF1 mice", "conditions": "for Cmax: measured as Pd", "experimental": "Pharmacokinetic parameters of AJ-5 were determined after IV, IP and PO dosing to MF1 nude mice randomly divided into groups. AJ-5 was prepared in the respective formulations immediately prior to dosing. For the IV group, the compound was made up in a mixture of 10% DMSO and 90% of an IV mixture, which consisted of 60% propylene glycol, 10% ethanol and 30% polyethylene glycol. For the PO group, AJ-5 was dissolved in DMSO and a hydroxypropylmethylcellulose solution (0.5% in water) containing 0.2% Tween 80 in a ratio of 1:9. For the IP group, AJ-5 was dissolved in 10% DMSO and 90% phosphate buffer solution. Mice were permitted access to food and water ad libitum. AJ-5 was administered (100 μL) by oral gavage at a dose of 20 mg/kg (n = 3), intravenously into the penile dorsal vein at a dose of 2 mg/kg (n = 2) and intraperitoneally at a dose of 2 mg/kg (n = 3).\nBlood samples (20 μL per sample) were collected by tail tip bleeding in lithium heparin tubes at predetermined time points to evaluate the kinetic profile over 24 h. Samples were stored at −80 °C until analysis. Blood samples together with calibration standards and quality controls were quantified using inductively coupled plasma mass spectrometry. All results reported are for palladium (Pd). Pharmacokinetic parameters of the AJ-5 complex were determined using non-compartmental analysis in PK Solutions 2.0 (Summit Research Systems, Montrose CO, USA)."}, "[5]": {"tested_on": "phosphorylated RIP3 and MLKL", "test": "Western blot of necroptosis markers (preliminary, data not shown)", "assay_type": "cell-based"}}}
{"smiles": "CC(C)c1cccc(C(C)C)c1[N+]1=Cc2cccc[c]2[Pd-2]1([Cl])[P+](CC[P+](c1ccccc1)(c1ccccc1)[Pd-2]1([Cl])[c]2ccccc2C=[N+]1c1c(C(C)C)cccc1C(C)C)(c1ccccc1)c1ccccc1", "note": "(stereo not shown) [AJ-5]", "values": [{"measurement": "Ability of C2C12 myoblasts to survive and proliferate (colony area)", "setting": "[1]", "result": "not significantly hindered"}, {"measurement": "Activation of caspases-8 and -9 compared with IC50 doxorubicin", "setting": "[2]; RD cells, 24 h, IC50 AJ-5 vs 0.5 µM doxorubicin", "result": "more robustly activated"}, {"measurement": "Active (cleaved) caspases-3/7 and cleaved PARP", "setting": "[2]; RH30 and RD", "result": "increased levels"}, {"measurement": "Cleaved caspase-8 and caspase-9", "setting": "[2]; RH30 and RD, western blotting and Caspase-Glo", "result": "increased levels and activity"}, {"measurement": "LC3II protein level", "setting": "[3]", "result": "induced in both RMS cell lines in a time- and dose-dependent manner"}, {"measurement": "AUC0-∞", "setting": "[4]; IP 2 mg/kg", "result": "88 ± 67", "unit": "µmol·min/L"}, {"measurement": "BA", "setting": "[4]; IP 2 mg/kg", "result": "49 ± 38", "unit": "%"}, {"measurement": "Tmax", "setting": "[4]; IP 2 mg/kg", "result": "4.0 ± 0.00", "unit": "h"}, {"measurement": "area under the curve", "setting": "[4]; IP 2 mg/kg", "result": 88, "unit": "min.µM/L"}, {"measurement": "Cmax", "setting": "[4]; IP 2 mg/kg", "result": "30 ± 10", "unit": "nM"}, {"measurement": "AUC0-∞", "setting": "[4]; IV 2 mg/kg", "result": "179 ± 12", "unit": "µmol·min/L"}, {"measurement": "CL", "setting": "[4]; IV 2 mg/kg", "result": 9.2, "unit": "mL/min/kg"}, {"measurement": "Vd", "setting": "[4]; IV 2 mg/kg", "result": 8.8, "unit": "L/kg"}, {"measurement": "t1/2", "setting": "[4]; IV 2 mg/kg, 2 mg/kg", "result": "11.2 ± 4.8", "unit": "h"}, {"measurement": "AUC0-∞", "setting": "[4]; PO 20 mg/kg", "result": "11 ± 2", "unit": "µmol·min/L"}, {"measurement": "BA", "setting": "[4]; PO 20 mg/kg", "result": "1 ± 0.1", "unit": "%"}, {"measurement": "Tmax", "setting": "[4]; PO 20 mg/kg", "result": "0.8 ± 0.3", "unit": "h"}, {"measurement": "area under the curve", "setting": "[4]; PO 20 mg/kg", "result": 11, "unit": "min.µM/L"}, {"measurement": "Cmax", "setting": "[4]; PO 20 mg/kg", "result": "6 ± 7", "unit": "nM"}, {"measurement": "Exposure after IP 2 mg/kg compared to PO 20 mg/kg", "setting": "[4]; ratio of AUC", "result": "eight-fold higher"}, {"measurement": "Active (phosphorylated) MLKL", "setting": "[5]", "result": "increased levels"}, {"measurement": "Phosphorylated RIP3", "setting": "[5]", "result": "increase"}]}
